We go through six compounds from patent US20220273011A1, “GINGEROL COMPOUNDS AND THEIR USE AS FLAVOR MODIFIERS” (Firmenich SA, priority 2019, published 2022).

What all share (assay type): in vivo
The subject of test [1] is salty taste and/or umami taste. Put plainly: Sensory tests of the compounds of formula (I) and (III) in reference solutions (NaCl, MSG, KCl), with or without nose clip. The note with it: for enhancing effect for a salty or umami taste: references: 0.25% NaCl, 0.05% MSG, 0.25% KCl solution, FIGS. 1-6. The method, then:
Sensory tests of the compounds of the present application were conducted. The compounds of formula (I) and (III) of the present application were tasted in sensory tests for their ability to enhance salty taste and/or umami taste in food products. The sensory tests were evaluated in four characters as saltiness, umami taste, saltiness in the presence of potassium chloride, and potassium chloride taste. The food products were evaluated with or without these compounds relevant to references (as indicated “With NC-Ref”, or “Without NC-Ref” in figures). The reference for saltiness was a 0.25% NaCl solution, the reference for umami was a 0.05% MSG solution, and the salty/bitter reference was a 0.25% KCl solution. The data was analyzed for statistical significances (indicated as * in the figures), such as levels of significance or graph of differences between means.
FIGS. 1-6 show the results of sensory tests for enhancing salty taste and/or umami taste using the compounds of formula (I) and (III) of the present application.

In test [2] the test system is salty taste and/or umami taste. Put plainly: Sensory tests in chicken bouillon. The note with it: for taste description: 10 ppm in chicken bouillon (0.7% salt, 0.04% MSG). The protocol:
[10]-gingerdiol and [10]-gingerdioldiacetate were tested to evaluate their ability to enhance salty taste and/or umami taste in chicken bouillon (GVA-000589, 0.7% salt, 0.04% MSG, no pepper, with 0.08% Chicken Flexarome 880449 FBS42).
The sensory tests were evaluated for salt intensity, umami intensity, and liking intensity. The experiments were conducted in four designs, i.e. UNF (reference), Ericamide ((E)-3-(3,4-dimethoxyphenyl)-N-(4-methoxyphenethyl)acrylamide, FEMA 4877) at 10 ppm, [10]-gingerdiol at 10 ppm, and [10]-gingerdioldiacetate at 10 ppm.

The subject of test [3] is salty taste and/or umami taste. Put plainly: Sensory tests in basic beef noodle seasoning. The note with it: 10 ppm in salt water, in comparison to 0.3% salt; FIG. 8. The method, then: [6]-gingerdiol, [8]-gingerdiol, and [10]-gingerdioldiacetate were tested to evaluate their abilities to enhance salty taste and/or umami taste in basic beef noodle seasoning (GVA-003129, no salt, no MSG; salt (−25%) 0.525% RTC, MSG 0.25% RTC; Corned Beef 589879 CB at 0.2% RTC).
The sensory tests were evaluated for salt intensity, umami intensity, bitter intensity and liking intensity. The experiments were conducts in four designs, i.e. salt at 0.3%, [6]-gingerdiol at 10 ppm in salt water, [8]-gingerdiol at 10 ppm in salt water, and [10]-gingerdioldiacetate at 10 ppm in salt water.

For `CCCCCCCCC[C@@H](C[C@@H](CCc1ccc(O)c(OC)c1)OC(C)=O)OC(C)=O` [[10]-gingerdioldiacetate], the “enhancing effect for a salty or umami taste” value (from here on “enhancing effect”) in test [1] is “enhancing effect for a salty or umami taste”. For the same compound, the taste description entry in test [2] is “strange, salty, solvent note, fruity, and some off tastes”. Further, in test [3], the bitter intensity result is recorded as “less bitter intensities”, the liking intensity entry is given as “higher liking intensities”, the salt intensity result is on record as “higher salt intensity” and the umami intensity result is recorded as “higher umami intensities”.

On to `CCCCC[C@H](O)C[C@H](O)CCc1ccc(O)c(OC)c1` [[6]-gingerdiol], for which, in test [3], the bitter intensity result was “less bitter intensities”, the liking intensity result is recorded as “higher liking intensities”, the salt intensity entry was “comparable salt intensities” and the umami intensity result was “higher umami intensities”.

For `CCCCCCC[C@@H](C[C@@H](CCc1ccc(O)c(OC)c1)OC(C)=O)OC(C)=O` [[8]-gingerdioldiacetate], the “enhancing salty taste and/or umami taste in food products” value in test [1] (FIG. 4) was “unexpected and excellent results”. The “enhancing effect” value in test [1] is “enhancing effect for a salty or umami taste”.

For `COc1ccc(CCNC(=O)/C=C/c2ccc(OC)c(OC)c2)cc1` [Ericamide, (E)-3-(3,4-dimethoxyphenyl)-N-(4-methoxyphenethyl)acrylamide, reference compound], the taste description result in test [2] is “chickeny, balanced, good mouthfeel and salty tastes”.

With `CCCCCCCCC[C@H](O)C[C@H](O)CCc1ccc(O)c(OC)c1` [[10]-gingerdiol], the “enhancing effect” value in test [1] is “enhancing effect for a salty or umami taste”. Moreover, in test [2], the taste description result is “less round, more salty, more acidic, chickeny balanced, coriander leaf, good and quite clean tastes”. Moreover, in test [2] (10 ppm in chicken bouillon, vs UNF (reference), FIG. 9), the salt intensity result is on record as “unexpected effects in enhancing the salt intensity”.

In the case of `CCCCCCC[C@H](O)C[C@H](O)CCc1ccc(O)c(OC)c1` [[8]-gingerdiol], in test [1], the “enhancing effect” value is on record as “enhancing effect for a salty or umami taste”. In test [3], the bitter intensity entry is reported as “less bitter intensities”, the liking intensity result was “higher liking intensities”, the salt intensity entry is listed as “comparable salt intensities” and the umami intensity entry is “higher umami intensities”.
